In paper PMC9741104, “Uptake of Flaxseed Dietary Linusorbs Modulates Regulatory Genes Including Induction of Heat Shock Proteins and Apoptosis” (Foods, 2022):
Several values for one entry are separate records, joined by “and”; a condition that tells them apart may be missing. Equal values may be shown once. Read-outs that look alike come from different tables or passages of the source. Marks after values point to notes of the source that are not given here.

Assays:
[1] = Circular dichroism secondary structure estimate in aqueous-DMSO solution; format: physicochemical; details: CD spectra 260–200 nm, H2O/DMSO (3%, v/v), room temperature, CDNN deconvolution, triplicate
Protocol: Circular dichroism (CD) spectroscopy was performed on LO samples using a fresh solution of aqueous-dimethylsulfoxide solution (H2O/DMSO, 3%, v/v). CD measurements were completed using a Pistar 180 spectrometer (Applied Photophysics Ltd., Leatherhead, UK). Sample measurements were conducted at room temperature using a 0.01 cm cuvette (Hellma 106-QSP), and samples were scanned between 200–260 nm at 0.5 nm increments, with a scan rate of 10 nm/min. The instrument was calibrated using (+)-10-camphorsulfonic acid (290.5 nm wavelength). Experiments were performed in triplicate and are reported as mean ± standard deviation (SD). The secondary structure content of the samples was evaluated with the CDNN CD Spectroscopy Deconvolution software version 2.0.3.188 [30]. Molar ellipticities were calculated from molecular masses of 977.26–1074.37 Da for LOs. All spectra were corrected by background subtraction of H2O/DMSO (3%, v/v).

Calu-3 cells = assay: Microarray analysis of apoptosis-regulating genes (Rt2 Profiler PCR Super Array); format: cell-based, human; parameters: key: +: genes over-expressed; NE: not expressed; –: genes under-expressed; details: Calu-3 exposed to LOs
Protocol: Human bronchial epithelial adenocarcinoma cell line (Calu-3) was obtained from the American Type Culture Collection (ATCC, Manassas, VA, USA). Calu-3 cell line was cultured in plastic culture flasks containing Modified Eagle’s Medium (MEM) and supplemented with 10% fetal bovine serum, glutamine (4 mM), and penicillin (100 U/mL)-streptomycin (100 μg/mL) solution. Cells were cultured to a density of 10^6 cells/mL before adding fresh media (on day 3). The cells were then grown at 37 °C under 5% CO2, and 100% humidity.
Microarray analysis was performed to determine LO effects on the expression of genes involved in regulating apoptosis (i.e., pro- or anti-apoptotic genes) in Calu-3 cells. These analyses were using an Rt2 Profiler PCR Super Array kit (Super Arrays Bioscience Corp., Frederick, MD, USA) following manufacturer’s instructions and were recorded using an MX3005P LightCycler (Stratagene, La Jolla, CA, USA).

HSP 70A = assay: Induction of HSP 70A in nematodes (qRT-PCR); format: in vivo, Caenorhabditis elegans; details: 2 h exposure, normalized to GAPDH, three repetitions
Protocol: Gene expression of HSP 70A in nematodes was completed as described in Saini et al. (2011). Briefly, C. elegans N2 strains were cultured in the dark and at room temperature on sterile plates (10 mm; VWR, Edmonton, AB, Canada) containing 10% bacteriological agar (Sigma-Aldrich, Oakville, ON, Canada) and autoclaved Baker’s yeast (1%, w/v). C. elegans were sub-cultured every 14 days to fresh plates. Exposure experiments began using C. elegans, which were two weeks old. These cultures were exposed for 2 h to either DMSO (negative control) or various concentrations (0.1, 1.0, 10.0, and 100.0 µM) of LOB3 dissolved in DMSO. After exposure, these organisms were then re-cultured to assess the effects of LOB3 on HSP 70A gene expression. An unamended culture medium was used as the control treatment. After treatment, cultures were centrifuged at 400× g for 10 min at 4 °C. The pellet was retained and stored at −80 °C until further analysis.
RNeasy® Mini kits (Qiagen, Mississauga, ON, Canada) were used to extract total RNA from C. elegans lysates, according to the manufacturer’s instructions. RNA quality was confirmed and quantified using agarose gel electrophoresis and a Nano Drop® spectrophotometer (Thermo Fisher Scientific, Ottawa, ON, Canada), respectively. […] This was accomplished using a Stratagene MX3005P LightCycler (La Jolla, CA, USA). The glyceraldehyde-3-phosphate dehydrogenase gene (GAPDH; GenBank Accession No. X04818) was used as the reference housekeeping gene for qRT-PCR analyses. The primer pairs used during qRT-PCR are listed in Table 2. qRT-PCR reactions were performed using QuantiFast® SYBR® Green PCR kit (Qiagen, Mississauga, ON, Canada) following the manufacturer’s instructions. The thermocycler conditions included an initial denaturation at 95 °C for 5 min, followed by 45 cycles of denaturation at 95 °C for 30 s, annealing at 55 °C for 30 s and elongation at 60 °C for 45 s, to amplify the target gene. Relative gene expression levels were corrected against the GAPDH housekeeping gene using MXPro software. All analyses were completed in triplicate.

C. elegans = assay: Lethality in nematode cultures; format: in vivo, Caenorhabditis elegans; details: 100 µM, 2 h exposure
cancer C6 cells = details: cited from earlier work
[2] = system: breast cancer cell line MDA-MB-231; details: doses lower than 10 µM; cited from earlier work
[3] = administered orally and intravenously, cited from earlier work
Text: The combined characteristics of the strong immunosuppressive activity and low toxicity make LOB3 an immunosuppressive drug candidate. Other LOs and their analogs have also been investigated for their immunosuppressant activity. […] Similarly, [1–8-NαC], [1-(Rs, Ss)-MetO]-linusorb B1 (LO1OB1, also known as CLE) ...

[4] = LOs in pig adipose after flaxseed diet (HPLC-ToF-MS); details: pig fed diet with 15% extruded flaxseed meal; fat biopsy at 10th rib, chloroform extract, HPLC-ToF-MS molecular ions
Text: Swine were fed a diet consisting of 15% flaxseed meal that was combined with other ingredients then extruded. Swine fat samples were taken from an 8 mm biopsy punch at the 10th rib, approximately 5 cm from the backbone [31]. The tissue samples were then extracted with chloroform and the extracts were dried, taken up in acetonitrile, and analyzed via direct loop injections using an Agilent 1100-series high-performance liquid chromatography (HPLC, Agilent, Santa Clara, CA, USA) equipped with a time-of-flight mass spectrometer (ToF-MS). Each sample extract was injected at a flow rate of 50 μL/min. The mobile phase consisted of 95% water: methanol containing 0.1% formic acid, and 5% acetonitrile.

Row | Antiparallel (%) [1] [%] | Parallel (%) [1] [%] | Random Coil (%) [1] [%] | α-Helix (%) [1] | β-Turn (%) [1] [%] | Substance | BAK1 (BCL2 antagonist/killer 1) up- or down-regulated (Calu-3 cells) | BCL2 (B-cell lymphoma 2) up- or down-regulated (Calu-3 cells) | CASP10 (Caspase 10) up- or down-regulated (Calu-3 cells) | CIDEA (Cell death-inducing DFFA-like effector A) up- or down-regulated (Calu-3 cells) | CIDEB (Cell death-inducing DFFA-like effector B) up- or down-regulated (Calu-3 cells) | Fas (TNF receptor superfamily member 6) up- or down-regulated (Calu-3 cells) | FasL (Fas ligand) up- or down-regulated (Calu-3 cells) | HRK (Harakiri) up- or down-regulated (Calu-3 cells) | TNF (Tumor necrosis factor) up- or down-regulated (Calu-3 cells) | TP53 (Tumor protein p53) up- or down-regulated (Calu-3 cells) | TP53BP2 (Tumor protein p53 binding protein 2) up- or down-regulated (Calu-3 cells) | other results
1 | 0.00 | 0.30 | 18.20 | 75.30% | 6.20 | [1–8-NαC], [1-(Rs, Ss)-MetO]- linusorb B1 [LO1OB1] | NE | – ^c | NE | + | + | + | NE | + | + | NE | + | 
2 | 0.00 | 0.40 | 0.10 | > 75% and 98.90% | 0.60 | [1–9-NαC], [1-(Rs, Ss)-MetO]- linusorb B2 [LO1OB2] | NE ^b | – | + | + | + | + | NE | + | + | + | + | 

Row | Substance | Antiparallel (%) [1] [%] | Parallel (%) [1] [%] | Random Coil (%) [1] [%] | α-Helix (%) [1] | β-Turn (%) [1] [%] | BAK1 (BCL2 antagonist/killer 1) up- or down-regulated (Calu-3 cells) | BCL2 (B-cell lymphoma 2) up- or down-regulated (Calu-3 cells) | CASP10 (Caspase 10) up- or down-regulated (Calu-3 cells) | CIDEA (Cell death-inducing DFFA-like effector A) up- or down-regulated (Calu-3 cells) | CIDEB (Cell death-inducing DFFA-like effector B) up- or down-regulated (Calu-3 cells) | Fas (TNF receptor superfamily member 6) up- or down-regulated (Calu-3 cells) | FasL (Fas ligand) up- or down-regulated (Calu-3 cells) | HRK (Harakiri) up- or down-regulated (Calu-3 cells) | TNF (Tumor necrosis factor) up- or down-regulated (Calu-3 cells) | TP53 (Tumor protein p53) up- or down-regulated (Calu-3 cells) | TP53BP2 (Tumor protein p53 binding protein 2) up- or down-regulated (Calu-3 cells) | other results
3 | [1–9-NαC]-linusorb B3 [LOB3] | 0.00 | 0.3 | 0.1 | 98.90% | 0.7 | + ^a |  | NE | NE | + | + | + | NE | + | + | + | Increase in HSP 70A production (HSP 70A; 0.1 µM): 30%; Increase in HSP 70A production (HSP 70A; 1.0 µM): 3.5 fold; Increase in HSP 70A production (HSP 70A; 10.0 µM): 30%; Lethality (C. elegans): lethal; Cytotoxic effects (cancer C6 cells; concentrations greater than 10.0 µM, changes in cell shape and reduction in cell numbers): cytotoxic effects were observed; Cytotoxic effects (cancer C6 cells; doses lower than 10 µM): no cytotoxic effects; Cytotoxic effects [2]: no cytotoxic effects; Toxicity ([3]; mice): non-toxic; Toxicity ([3]; rats): non-toxic; Distribution to adipose tissue [4]: trace amounts
